Test results as given in ChEMBL document CHEMBL5338793, “Discovery of Pyrimidinediamine Derivatives as Potent Methuosis Inducers for the Treatment of Triple-Negative Breast Cancer” (J Med Chem, 2023).
Activity calls are given as the source filed them. No cut-off for these calls is given here.

Tests used:
[1] = system: HCC1806; assay: Upregulation of LC3-II level in human HCC1806 cells incubated for 24 hrs by Western blot analysis; assay type: functional, cell-based; settings: dose <= 1.5 µM
[2] = system: HCC1806; assay: Antitumor activity against human HCC1806 cells xenografted in mouse assessed as tumor growth inhibition at 2.5 to 5 mg/kg, ip administered every 2 days for 15 days; assay type: functional, organism-based; settings: dose 2.5-5 mg/kg, time 15.0 day
[3] = system: HCC1806; assay: Induction of morphological changes in human HCC1806 cells assessed as intracellular vacuolization at 1 uM pretreated with Z-VAD-FMK followed by compound addition measured after 24 hrs by microscopic analysis; assay type: functional, cell-based
[4] = system: HCC1806; assay: Induction of morphological changes in human HCC1806 cells assessed as intracellular vacuolization at 0.5 uM incubated for 24 hrs by microscopic analysis; assay type: functional, cell-based
[5] = system: MDA-MB-468; assay: Induction of morphological changes in human MDA-MB-468 cells assessed as intracellular vacuolization at 1.5 uM pretreated with Baf-A1 followed by compound addition measured after 24 hrs by microscopic analysis; assay type: functional, cell-based
[6] = Toxicity in mouse xenografted with human HCC1806 cells assessed as drug tolerance at 2.5 to 5 mg/kg, ip administered every 2 days for 15 days; assay type: organism-based; settings: in vivo, 360 h, dose 2.5-5 mg/kg, time 15 day
[7] = system: HCC1806; assay: Antiproliferative activity against human HCC1806 cells assessed as inhibition of cell proliferation at 1 uM measured after 24 hrs in presence of 3-MA by SRB assay; assay type: functional, cell-based
[8] = system: HCC1806; assay: Induction of morphological changes in human HCC1806 cells assessed as intracellular vacuolization at 1.5 uM measured after 12 to 24 hrs by microscopic analysis; assay type: functional, cell-based; settings: time 12-24 hrs
[9] = Toxicity in mouse xenografted with human HCC1806 cells assessed as body weight change at 2.5 to 5 mg/kg, ip administered every 2 days for 15 days; assay type: organism-based; settings: in vivo, 360 h, dose 2.5-5 mg/kg, time 15 day
[10] = system: MDA-MB-468; assay: Induction of morphological changes in human MDA-MB-468 cells assessed as intracellular vacuolization at 0.5 uM incubated for 24 hrs by microscopic analysis; assay type: functional, cell-based
[11] = system: HCC1806; assay: Upregulation of Lamp1 level in human HCC1806 cells incubated for 24 hrs by Western blot analysis; assay type: functional, cell-based; settings: dose <= 1.5 µM
[12] = system: HCC1806; assay: Upregulation of Lamp1 level in human HCC1806 cells at 1.5 uM incubated for 24 hrs by immunofluorescence microscopy; assay type: functional, cell-based
[13] = system: MDA-MB-468; assay: Upregulation of Lamp1 level in human MDA-MB-468 cells incubated for 24 hrs by Western blot analysis; assay type: functional, cell-based; settings: dose <= 1.5 µM
[14] = system: MDA-MB-468; assay: Antiproliferative activity against human MDA-MB-468 cells assessed as inhibition of cell proliferation at 1 uM pretreated with Z-VAD-FMK followed by compound addition measured after 24 hrs by SRB assay; assay type: functional, cell-based
[15] = system: HCC1806; assay: Induction of morphological changes in human HCC1806 cells assessed as rate of intracellular vacuolization at 1 uM incubated for 24 hrs by microscopic analysis relative to control; assay type: functional
[16] = system: HCC1806; assay: Induction of morphological changes in human HCC1806 cells assessed as intracellular vacuolization at 1 uM measured after 24 hrs in presence of 3-MA by microscopic analysis; assay type: functional, cell-based
[17] = system: MDA-MB-468; assay: Antiproliferative activity against human MDA-MB-468 cells assessed as inhibition of cell proliferation at 1.5 uM pretreated with Baf-A1 followed by compound addition measured after 24 hrs by SRB assay; assay type: functional, cell-based
[18] = system: HCC1806; assay: Induction of morphological changes in human HCC1806 cells assessed as intracellular vacuolization at 1.5 uM pretreated with Baf-A1 followed by compound addition measured after 24 hrs by microscopic analysis; assay type: functional, cell-based
[19] = system: MDA-MB-468; assay: Upregulation of Lamp1 level in human MDA-MB-468 cells at 1.5 uM incubated for 24 hrs by immunofluorescence microscopy; assay type: functional, cell-based
[20] = system: HCC1806; assay: Upregulation of Rab7 level in human HCC1806 cells at 1.5 uM incubated for 24 hrs by immunofluorescence microscopy; assay type: functional, cell-based
[21] = system: MDA-MB-468; assay: Upregulation of Rab7 level in human […] cells incubated for 24 hrs by Western blot analysis; assay type: functional, cell-based; settings: dose <= 1.5 µM
[22] = system: HCC1937; assay: Antiproliferative activity against human HCC1937 cells assessed as inhibition of cell proliferation incubated for 24 hrs by SRB assay; assay type: functional, cell-based; settings: HCC1937, 24 h
[23] = system: HCC1806; assay: Antiproliferative activity against human HCC1806 cells assessed as inhibition of cell proliferation at 1.5 uM pretreated with Baf-A1 followed by compound addition measured after 24 hrs by SRB assay; assay type: functional, cell-based
[24] = Toxicity in mouse xenografted with human HCC1806 cells assessed as effect on CR level at 2.5 to 5 mg/kg, ip administered every 2 days for 15 days; assay type: organism-based; settings: in vivo, 360 h, dose 2.5-5 mg/kg, time 15 day
[25] = system: HCC1806; assay: Induction of morphological changes in human HCC1806 cells assessed as intracellular vacuolization incubated for 24 hrs by microscopic analysis; assay type: functional, cell-based; settings: dose 0.5-1.5 µM
[26] = Toxicity in mouse xenografted with human HCC1806 cells assessed as effect on AST level at 2.5 to 5 mg/kg, ip administered every 2 days for 15 days; assay type: organism-based; settings: in vivo, 360 h, dose 2.5-5 mg/kg, time 15 day
[27] = system: HCC1806; assay: Upregulation of Rab7 level in human HCC1806 cells incubated for 24 hrs by Western blot analysis; assay type: functional, cell-based; settings: dose <= 1.5 µM
[28] = system: HCC1806; assay: Upregulation of p62 level in human HCC1806 cells incubated for 24 hrs by Western blot analysis; assay type: functional, cell-based; settings: dose <= 1.5 µM
[29] = system: HCC1806; assay: Antiproliferative activity against human HCC1806 cells assessed as inhibition of cell proliferation at 1 uM pretreated with Z-VAD-FMK followed by compound addition measured after 24 hrs by SRB assay; assay type: functional, cell-based
[30] = system: MDA-MB-468; assay: Induction of morphological changes in human MDA-MB-468 cells assessed as intracellular vacuolization at 1 uM measured after 24 hrs in presence of 3-MA by microscopic analysis; assay type: functional, cell-based
[31] = system: 184B5; assay: Induction of morphological changes in human 184B5 cells assessed as intracellular vacuolization upto 2 uM incubated for 24 hrs by microscopic analysis; assay type: toxicity, cell-based; settings: 184b5, 24 h
[32] = system: HCC1806; assay: Antiproliferative activity against human HCC1806 cells assessed as inhibition of cell proliferation at 1 uM incubated for 24 hrs by SRB assay relative to control; assay type: functional
[33] = system: HCC1806; assay: Antiproliferative activity against human HCC1806 cells assessed as inhibition of cell proliferation incubated for 24 hrs by SRB assay; assay type: functional, cell-based; settings: HCC1806, 24 h
[34] = system: MDA-MB-468; assay: Antiproliferative activity against human MDA-MB-468 cells assessed as inhibition of cell proliferation incubated for 24 hrs by SRB assay; assay type: functional, cell-based; settings: MDA-MB-468, 24 h
[35] = system: MDA-MB-468; assay: Induction of morphological changes in human MDA-MB-468 cells assessed as intracellular vacuolization at 1 uM pretreated with Z-VAD-FMK followed by compound addition measured after 24 hrs by microscopic analysis; assay type: functional, cell-based
[36] = system: MDA-MB-468; assay: Induction of macropinocytosis in human MDA-MB-468 cells at 1.5 uM incubated for 24 hrs by LY staining based live cell imaging analysis; assay type: functional
[37] = system: MDA-MB-468; assay: Induction of morphological changes in human MDA-MB-468 cells assessed as intracellular vacuolization incubated for 24 hrs by microscopic analysis; assay type: functional, cell-based; settings: dose 0.5-1.5 µM
[38] = system: 184B5; assay: Cytotoxicity against human 184B5 cells assessed as reduction in cell viability at 2 uM incubated for 24 hrs by SRB assay; assay type: toxicity, cell-based; settings: 184b5, 24 h
[39] = system: MDA-MB-468; assay: Induction of morphological changes in human MDA-MB-468 cells assessed as intracellular vacuolization at 1 uM incubated for 24 hrs by microscopic analysis; assay type: functional, cell-based
[40] = system: MDA-MB-468; assay: Antiproliferative activity against human MDA-MB-468 cells assessed as inhibition of cell proliferation at 1 uM measured after 24 hrs in presence of 3-MA by SRB assay; assay type: functional, cell-based
[41] = system: HCC1806; assay: Antiproliferative activity against human HCC1806 cells assessed as inhibition of cell proliferation at 2 uM incubated for 24 hrs by SRB assay relative to control; assay type: functional
[42] = system: MDA-MB-468; assay: Upregulation of Rab7 level in human MDA-MB-468 cells at 1.5 uM incubated for 24 hrs by immunofluorescence microscopy; assay type: functional, cell-based
[43] = Toxicity in mouse xenografted with human HCC1806 cells assessed as effect on ALT level at 2.5 to 5 mg/kg, ip administered every 2 days for 15 days; assay type: organism-based; settings: in vivo, 360 h, dose 2.5-5 mg/kg, time 15 day
[44] = system: HCC1806; assay: Induction of macropinocytosis in human HCC1806 cells at 1.5 uM incubated for 24 hrs by LY staining based live cell imaging analysis; assay type: functional

Q: With `COc1cc(Nc2nc(N3CCNCC3)ncc2SC)ccc1NC(=O)c1cccc(Br)n1` as the compound, how does the Activity [1] read?
A: Dose-Dependent Effect

Q: What about the Activity [2] of the same compound?
A: Active

Q: And the Activity [3]?
A: Active

Q: And the Activity [4]?
A: Active

Q: What about the Activity [5] of the same compound?
A: inactive

Q: What about the Activity [6] of the same compound?
A: Non-Toxic

Q: And the Activity [7]?
A: Active

Q: And the Activity [8]?
A: Active

Q: And the Activity [9]?
A: Non-Toxic

Q: What about the Activity [10] of the same compound?
A: Active

Q: What about the Activity [11] of the same compound?
A: Dose-Dependent Effect

Q: What about the Activity [12] of the same compound?
A: Active

Q: What about the Activity [13] of the same compound?
A: Dose-Dependent Effect

Q: And the Activity [14]?
A: Active

Q: What about the Activity [15] of the same compound?
A: 78.3%

Q: And the Activity [16]?
A: Active

Q: And the Activity [17]?
A: inactive

Q: And the Activity [18]?
A: inactive

Q: What about the Activity [19] of the same compound?
A: Active

Q: What about the Activity [20] of the same compound?
A: Active

Q: And the Activity [21]?
A: Dose-Dependent Effect

Q: What about the IC50 [22] of the same compound?
A: 1030 nM

Q: What about the Activity [23] of the same compound?
A: inactive

Q: And the Activity [24]?
A: Non-Toxic

Q: What about the Activity [25] of the same compound?
A: Dose-Dependent Effect

Q: What about the Activity [26] of the same compound?
A: Non-Toxic

Q: What about the Activity [27] of the same compound?
A: Dose-Dependent Effect

Q: And the Activity [28]?
A: Dose-Dependent Effect

Q: What about the Activity [29] of the same compound?
A: Active

Q: And the Activity [30]?
A: Active

Q: What about the Activity [31] of the same compound?
A: Non-Toxic

Q: And the inhibition at 1 µM [32]?
A: 99.5%

Q: And the IC50 [33]?
A: 700 nM

Q: And the IC50 [34]?
A: 920 nM

Q: What about the Activity [35] of the same compound?
A: Active

Q: And the Activity [36]?
A: Active

Q: And the Activity [37]?
A: Dose-Dependent Effect

Q: What about the Activity [38] of the same compound?
A: Toxic

Q: And the Activity [39]?
A: Active

Q: What about the Activity [40] of the same compound?
A: Active

Q: And the inhibition at 2 µM [41]?
A: 7.07%

Q: And the Activity [42]?
A: Active

Q: And the Activity [43]?
A: Non-Toxic

Q: And the Activity [44]?
A: Active
